How the values were obtained:
Experiment in all cases: relative viability (nuclei count vs DMSO), 5 days (fraction); higher = more cells survive
201T = tested on: 201T
Method in brief: (§1)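 Each reported value is a median over duplicate plates. It expresses relative viability: treated-well nuclei count divided by vehicle-well nuclei count. Lung cancer cell lines in 1536-well plates were dosed by pin tool a day after seeding, alone with one drug or with a fixed anchor-drug dose plus five library-drug doses (not always all listed) in √10 steps, and nuclei were counted after 5 days.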

NCI-H520 = tested on: NCI-H520
Method in brief: as §1

NCI-H441 = tested on: NCI-H441
Method in brief: as §1

LOU-NH91 = tested on: LOU-NH91
Method in brief: as §1

NCI-H647 = tested on: NCI-H647
Method in brief: as §1

NCI-H322M = tested on: NCI-H322M
Method in brief: as §1

NCI-H1563 = tested on: NCI-H1563
Method in brief: as §1

EPLC-272H = tested on: EPLC-272H
Method in brief: as §1

NCI-H2170 = tested on: NCI-H2170
Method in brief: as §1

PC-14 = tested on: PC-14
Method in brief: as §1

NCI-H3122 = tested on: NCI-H3122
Method in brief: as §1

H3255 = tested on: H3255
Method in brief: as §1

UMC-11 = tested on: UMC-11
Method in brief: as §1

COR-L23 = tested on: COR-L23
Method in brief: as §1

HCC-15 = tested on: HCC-15
Method in brief: as §1

NCI-H2405 = tested on: NCI-H2405
Method in brief: as §1

NCI-H2023 = tested on: NCI-H2023
Method in brief: as §1

NCI-H2347 = tested on: NCI-H2347
Method in brief: as §1

NCI-H1734 = tested on: NCI-H1734
Method in brief: as §1

NCI-H1650 = tested on: NCI-H1650
Method in brief: as §1

O=c1cc(-c2cccc3c2Sc2ccccc2S3)oc(N2CCOCC2)c1 + C[C@@H](Oc1cc(-c2cnn(C3CCNCC3)c2)cnc1N)c1c(Cl)ccc(F)c1Cl [Crizotinib] (partner 1 µM)
relative viability (201T; first compound 0.08 µM): 1
relative viability (201T; first compound 0.253 µM): 0.889
relative viability (201T; first compound 0.8 µM): 1
relative viability (201T; first compound 2.53 µM): 1.08
relative viability (201T; first compound 8 µM): 0.958
relative viability (NCI-H520; first compound 0.08 µM): 0.447
relative viability (NCI-H520; first compound 0.253 µM): 0.695
relative viability (NCI-H520; first compound 0.8 µM): 0.976
relative viability (NCI-H520; first compound 2.53 µM): 0.821
relative viability (NCI-H520; first compound 8 µM): 0.821
relative viability (NCI-H441; first compound 0.08 µM): 0.697
relative viability (NCI-H441; first compound 0.253 µM): 1.28
relative viability (NCI-H441; first compound 0.8 µM): 0.779
relative viability (NCI-H441; first compound 2.53 µM): 0.807
relative viability (NCI-H441; first compound 8 µM): 1
relative viability (LOU-NH91; first compound 0.08 µM): 0.727
relative viability (LOU-NH91; first compound 0.253 µM): 0.718
relative viability (LOU-NH91; first compound 0.8 µM): 0.707
relative viability (LOU-NH91; first compound 2.53 µM): 0.702
relative viability (LOU-NH91; first compound 8 µM): 0.776
relative viability (NCI-H647; first compound 0.08 µM): 1.06
relative viability (NCI-H647; first compound 0.253 µM): 1.09
relative viability (NCI-H647; first compound 0.8 µM): 0.949
relative viability (NCI-H647; first compound 2.53 µM): 1.02
relative viability (NCI-H647; first compound 8 µM): 1.12
relative viability (NCI-H322M; first compound 0.08 µM): 0.885
relative viability (NCI-H322M; first compound 0.253 µM): 0.901
relative viability (NCI-H322M; first compound 0.8 µM): 1.04
relative viability (NCI-H322M; first compound 2.53 µM): 0.937
relative viability (NCI-H322M; first compound 8 µM): 1.08
relative viability (NCI-H1563; first compound 0.08 µM): 0.93
relative viability (NCI-H1563; first compound 0.253 µM): 0.758
relative viability (NCI-H1563; first compound 0.8 µM): 0.792
relative viability (NCI-H1563; first compound 2.53 µM): 0.804
relative viability (NCI-H1563; first compound 8 µM): 0.887
relative viability (EPLC-272H; first compound 0.08 µM): 0.786
relative viability (EPLC-272H; first compound 0.253 µM): 0.891
relative viability (EPLC-272H; first compound 0.8 µM): 1.19
relative viability (EPLC-272H; first compound 2.53 µM): 0.963
relative viability (EPLC-272H; first compound 8 µM): 1.08
relative viability (NCI-H2170; first compound 0.08 µM): 1.17
relative viability (NCI-H2170; first compound 0.253 µM): 1.19
relative viability (NCI-H2170; first compound 0.8 µM): 1.31
relative viability (NCI-H2170; first compound 2.53 µM): 1.12
relative viability (NCI-H2170; first compound 8 µM): 1.26
relative viability (PC-14; first compound 0.08 µM): 0.979
relative viability (PC-14; first compound 0.253 µM): 1.13
relative viability (PC-14; first compound 0.8 µM): 0.945
relative viability (PC-14; first compound 2.53 µM): 0.899
relative viability (PC-14; first compound 8 µM): 0.868
relative viability (NCI-H3122; first compound 0.08 µM): 0.324
relative viability (NCI-H3122; first compound 0.253 µM): 0.266
relative viability (NCI-H3122; first compound 0.8 µM): 0.24
relative viability (NCI-H3122; first compound 2.53 µM): 0.3
relative viability (NCI-H3122; first compound 8 µM): 0.323
relative viability (H3255; first compound 0.08 µM): 0.89
relative viability (H3255; first compound 0.253 µM): 0.992
relative viability (H3255; first compound 0.8 µM): 1.02
relative viability (H3255; first compound 2.53 µM): 0.747
relative viability (H3255; first compound 8 µM): 1.26
relative viability (UMC-11; first compound 0.08 µM): 0.729
relative viability (UMC-11; first compound 0.253 µM): 0.566
relative viability (UMC-11; first compound 0.8 µM): 0.729
relative viability (UMC-11; first compound 2.53 µM): 0.644
relative viability (UMC-11; first compound 8 µM): 0.701
relative viability (COR-L23; first compound 0.08 µM): 0.744
relative viability (COR-L23; first compound 0.253 µM): 0.876
relative viability (COR-L23; first compound 0.8 µM): 0.792
relative viability (COR-L23; first compound 2.53 µM): 0.737
relative viability (COR-L23; first compound 8 µM): 0.616
relative viability (HCC-15; first compound 0.08 µM): 0.952
relative viability (HCC-15; first compound 0.253 µM): 0.934
relative viability (HCC-15; first compound 0.8 µM): 1.01
relative viability (HCC-15; first compound 2.53 µM): 0.857
relative viability (HCC-15; first compound 8 µM): 0.827
relative viability (NCI-H2405; first compound 0.08 µM): 0.831
relative viability (NCI-H2405; first compound 0.253 µM): 0.887
relative viability (NCI-H2405; first compound 0.8 µM): 0.832
relative viability (NCI-H2405; first compound 2.53 µM): 0.759
relative viability (NCI-H2405; first compound 8 µM): 0.853
relative viability (NCI-H2023; first compound 0.08 µM): 0.673
relative viability (NCI-H2023; first compound 0.253 µM): 0.682
relative viability (NCI-H2023; first compound 0.8 µM): 0.787
relative viability (NCI-H2023; first compound 2.53 µM): 0.648
relative viability (NCI-H2023; first compound 8 µM): 0.646
relative viability (NCI-H2347; first compound 0.08 µM): 0.654
relative viability (NCI-H2347; first compound 0.253 µM): 0.394
relative viability (NCI-H2347; first compound 0.8 µM): 0.738
relative viability (NCI-H2347; first compound 2.53 µM): 0.769
relative viability (NCI-H2347; first compound 8 µM): 0.711
relative viability (NCI-H1734; first compound 0.08 µM): 0.686
relative viability (NCI-H1734; first compound 0.253 µM): 0.802
relative viability (NCI-H1734; first compound 0.8 µM): 0.9
relative viability (NCI-H1734; first compound 2.53 µM): 0.872
relative viability (NCI-H1734; first compound 8 µM): 0.672
relative viability (NCI-H1650; first compound 0.08 µM): 0.998
relative viability (NCI-H1650; first compound 0.253 µM): 0.956
relative viability (NCI-H1650; first compound 0.8 µM): 0.945
relative viability (NCI-H1650; first compound 2.53 µM): 0.963
relative viability (NCI-H1650; first compound 8 µM): 1.35
